Results as given in patent US9550978B2, “Isolation and functional identification of cells” (CAPROTEC BIOANALYTICS GMBH, priority 2010, dated 2017).

Assays:
HT-1080 cells [1] = experiment: Method 2: cell tagging with capture compound first, then streptavidin magnetic particles (Example 2b); assay type: cell-based, human; settings: culture "con", free marimastat competitor added first
Procedure: Cell culture supernatant of two cell cultures of adherent fibrosarcoma cells of cell line HT-1080 was prepared as described above (example 2a).
The cultures were spiked with 400 μl cell culture supernatant each. “Ver” received 20 μl water, control “con” received 20 μl 10 mM free marimastat (competitor), both cultures were swayed for mixing and incubated 3 min at room temperature, carefully keeping the cell layer wet at all times. During this step, the free marimastat in culture “con” binds to marimastat-binding proteins or protein complexes on the surface of cells and blocks their binding sites, preventing marimastat capture compounds from binding during the subsequent step. 2 μl 100 μmol/l marimastat capture compound was added to each culture, shaken gently and incubated 5 min at room temperature. Binding of the marimastat capture compound only happens on the cell surface proteins in culture “ver” (which are not blocked). The supernatant was removed from each, both cultures were washed with 400 μl fresh cell culture supernatant twice to remove excess marimastat capture compound, and 400 μl fresh cell culture supernatant was added each. 1 μl of 10 mg/ml strepatavidin coated magnetic particles of 1 μm diameter (Dynabeads MyOne Steptavidin C1 (Dynal)), was added to each culture, homogenized by swaying and incubated 30 min at room temperature. […]

[2] = target: T1, marimastat-binding protein on the cell surface of HT-1080 cells (Homo sapiens, UniProt P50281); experiment: Photochemical crosslink on cell surface, detection by streptavidin-horseradish peroxidase blot (Example 5a); settings: sample "C": 0.5 mmol/l marimastat competitor, UV irradiated
T1 construct: densely grown with adherent HT-1080 cells; endogenous in cells; host or cells: HT-1080 cells (adherent, not recombinant)
Procedure: Five times three sterile petri dishes with 3.5 cm diameter were densely grown with adherent HT-1080 cells (passage 10, see example 2 for medium and conditions). The cell culture supernatant was collected and 400 μl of this supernatant was again applied onto the cells such that the cells were covered with a layer of cell culture supernatant. Three of the petri dishes were labeled, respectively, “A”, “C”, “PD”, “PDC” and “noCC”. To “A”, “PD” and “noCC” were added 20 μl ultrapure water, respectively. To “C” and “PDC” were added 20 μl 10 mmol/l marimastat, respectively (0.5 mmol/l final concentration) and homogenized by swaying. To “A”, “C”, “PD” and “PDC” were added 2 μl 100 μmol/l marimastat capture compound (0.5 μmol/l final concentration) and homogenized by swaying. After a 2 min incubation, cells with supernatant of petri dishes “A”, “C” and “noCC” (open lids) were irradiated for 1 min with UV light (λmax=310 nm, caproBox, caprotec Bioanalytics GmbH, Berlin). Cells with supernatant of petri dishes “PD” and “PDC” were not irradiated but otherwise treated the same (incubated in caproBox for 1 min without irradiation). The supernatant was collected and discarded (in a repetition experiment, this supernatant was also analyzed as described in example 5b). […]

HT-1080 cells [3] = experiment: Immobilization of cells from suspension on streptavidin coated multititer plates (Example 4); assay type: cell-based, human; settings: mean of three samples
Procedure: HT-1080 cells (see above) were treated for 30 min in cell culture medium with calcein AM to fluorescently stain the cytosol and were provided in suspension (obtained by scraping off the adherent cells using a cell spatula) at a final concentration of ˜0.5*10^6/ml in culture medium. White blood cells (WBC) freshly obtained from a donor by lysis of erythrocytes and subsequent washing and resuspension were adjusted to a final concentration of ˜5*10^6/ml in phosphate buffered saline (PBS). 12-well multititer plates (streptavidin coated) were used for cell immobilization.
Samples of HT-1080 cells to be used as controls were treated with adjusted to 50 μmol/l free marimastat in medium by adding a stock solution (10 mM) of the competitor (samples marked “C”). Non-competitor verum samples are marked “A”.
Samples treated with marimastat capture compound in solution were adjusted to 0.5 μmol/l capture compound in medium from 20 μmol/l stock solution (samples labelled “ind”), or attached to the capture compound-treated streptavidin-coated surface (samples labelled “dir”).
For determining the influence on binding by activating the reactivity function by UV irradiation (samples labelled “UV”) in samples for indirect binding (first capture compound attaching to cells, then cells binding to surface), cells were irradiated for 1 min by a near UV laboratory source (λmax=310 nm, caproBox, caprotec bioanalytics GmbH, Berlin) in an uncoated well (or not for samples without UV irradiation), collected, spun down, washed, and transferred to a streptavidin-coated well (incubation time˜3 h). Samples for direct binding were brought into capture compound coated wells (prepared as described below) directly (incubation time˜3 h) and UV-irradiated therein (or not for samples without UV irradiation). For loading the streptavidin-coated microtiter plates with capture compound, the wells were rinsed repeatedly for 10 min with 10 μl of 20 μM marimastat capture compound per well in 200 μl PBS at room temperature; the supernatant was discarded and the wells were washed with PBS.
The medium over the cells bound to the surface was mainly removed (a minimum rest was left to cover the cells and not let the cells dry) and all wells were washed carefully two times with 1 ml medium. HT-1080 cells were counted by their calcein AM fluorescence using a Cellavista system. Values below are adjusted for HT-1080 cell numbers delivered onto the well (1.9*10^5).

MMP14 = target: T2, MMP14 (Homo sapiens, UniProt P50281); experiment: Capture Compound Mass Spectrometry (CCMS) identification of the marimastat-binding protein (Example 5b); settings: excess marimastat competitor
T2 construct: densely grown with adherent HT-1080 cells; endogenous in cells; host or cells: HT-1080 cells (adherent, not recombinant)
Procedure: In a repetition of the experiment described in example 5a, the magnetic particles after the wash buffer and water wash steps (end of 5a.ii) were additionally washed six times with 200 μl 80% acetonitrile and once with 200 μl ultrapure water. The proteins captured on the particles were digested by addition of 9 μl 50 mmol/l ammonium bicarbonate and 1 μl 0.5 mg/ml trypsin (Sequencing Grade, Roche, ProdNo. 11047841001) in 1 mmol/l HCl. The particles were kept in suspension in this solution by shaking (2000 rpm) at 37° C. over night. After magnetically separating the particles, the supernatant was evaporated and the contained tryptic peptides were analyzed by nanoLC-MS/MS after dissolving them in 0.1% formic acid (equipment: Easy-nLC liquid chromatography system; Proxeon Biosystems A/S and LTQ Orbitrap Velos mass spectrometer; Thermo Scientific). The peptide and protein identification by automated sequence database search was performed on the one hand using the search algorithms SEQUEST (implemented in the Proteome Discoverer software 1.2.0.208, Thermo Scientific) and X!Tandem (The Global Proteome Machine Organization; version 2007.01.01.1, implementiert in the Scaffold software, version 3_00_03, Proteome Software Inc.) or on the other hand using MaxQuant (version 1.1.1.25, Cox, J. and Mann, M. (2008) Nat Biotechnol 26, 1367-72.) for label-free quantification of proteins. […]

HT-1080 cells [4] = experiment: Marimastat-specific tagging of adherent cells by capture compound coated magnetic particles (Example 2a); assay type: cell-based, human; settings: culture "con", with free marimastat competitor; light microscopy
Text: Cell culture supernatant (10% heat inactivated fetal calf serum (PAA Laboratories GmbH), 1× Penicillin/Streptomycin (PAA) in DMEM (Dulbecco's Modified Eagle Medium) High Glucose (4.5 g/l) with stable glutamin (PAA)) was removed from two cell cultures of adherent fibrosarcoma cells (cell line HT-1080 (ACC 315 Deutsche Sammlung von Mikroorganismen and Zellkulturen DSMZ Braunschweig; densely grown; 3.5 cm petri dish; passage 9) and added to further cell culture supernatant from a larger culture. The petri dish was closed to avoid drying of the cells.
20 μl 10 mg/ml strepatavidin coated magnetic particles of 1 μm diameter (Dynabeads MyOne Steptavidin C1 (Dynal)) (streptavidin magnetic particles or particles in the following) were mixed with 10 μl 100 μM marimastat capture compound V (caprotec bioanalytics GmbH)
[drawing 4] and incubated 10 min at room temperature. The particles were collected at the inner vial wall by applying a strong magnet (caproMag, caprotec bioanalytics GmbH, containing a 150×9×7 mm neodymium magnet (NdFeB) of quality N52 (1.43 Tesla)), and the supernatant was discarded. The particles were resuspended in 500 μl HT-1080 cell culture supernatant, collected magnetically anew and resuspended in 200 μl water, giving a 1 mg/ml marimastat capture compound-particle suspension. […]

HT-1080 cells [5] = experiment: Specific magnetic isolation of selectively tagged cells (Example 3); assay type: cell-based, human; settings: control "con", free marimastat competitor
Procedure: After tagging and washing (method 2, see example 2b) the supernatant was removed from cultures “ver” and “con” and the cultures were treated with 200 μl non-enzymatic cell dissociation solution (Sigma), followed by 10 min incubation at room temperature. […] The cells were moved to two 200 μl PCR vials labelled “ver” and “con”, respectively.

Compound: CNC(=O)[C@@H](NC(=O)[C@H](CC(C)C)[C@H](O)C(=O)NO)C(C)(C)C [marimastat]
- particle tagging of cells after washing (HT-1080 cells [1]): little or no particles are visible
- blot signal of protein photochemically crosslinked with the capture compound [2]: the signal is absent
- Percent input cells recovered (HT-1080 cells [3]; C dir (no UV): direct binding, marimastat excess competitor, no UV): 14.5 (standard deviation of Percent
- Percent input cells recovered (HT-1080 cells [3]; C dir UV: direct binding, marimastat excess competitor, UV activated): 7.9 (standard deviation of Percent
- Percent input cells recovered (HT-1080 cells [3]; C ind (no UV): indirect binding, marimastat excess competitor, no UV): 1.1 (standard deviation of Percent
- Percent input cells recovered (HT-1080 cells [3]; C ind UV: indirect binding, 50 μmol/l free marimastat competitor, UV activated): 0.7 (standard deviation of Percent
- MMP14 capture in presence of competitor (MaxQuant analysis) (MMP14): completely suppressed
- tagging of cells on their surface by particles after washing (HT-1080 cells [4]): not marked, or to only very little extent
- retention of tagged cells at vial wall by magnet (HT-1080 cells [5]): mostly sunk to the bottom of the vial
